Assay results as given in patent publication US20090247520A1, “INHIBITORS OF ANTIGEN RECEPTOR-INDUCED NF-kappa B ACTIVATION” (The Burnham Institute for Medical Research, priority 2008, published 2009).
pIC50: −log10 of the molar value. “Also recorded” adds a separate entry of the source. Read-outs that look alike come from different tables or passages of the source.

Assays:
[1] = test system: anti-CD3/CD28-induced lymphocyte proliferation; test: Lymphocyte proliferation assay (3H-Thymidine), anti-CD3/CD28-stimulated splenocytes; assay type: cell-based; settings: mouse splenocytes; for pIC50: 3H-Thymidine incorporation, read-out: IC50, lymphocyte proliferation, T-cells (anti-CD3/CD28)
Description: (§1) (A) Isolated mouse primary splenocytes were cultured with anti-CD3/anti-CD28 (0.3 μg/mL each) or anti-IgM (3 μg/mL) for 48 h, then 1 μCi 3H-Thymidine was added for 12 h and incorporation into DNA was measured, expressing data as fold increase above unstimulated cells (mean±SD; n=3). (B-D) Primary splenocytes were pretreated for 2 h with IKK inhibitor, BMS-335541 (B), PKC inhibitor, Bisindolylmaleimide I (C) or CID-2858522 (D), then stimulated with anti-CD3/anti-CD28 (0.3 μg/mL) or anti-IgM (3 μg/mL) for 48 h. 1 μCi 3H-Thymidine was added for 12 h and incorporation into DNA was measured, expressing data as percent inhibition relative to control cells treated with DMSO (mean±SD; n=3). […] Levels of TRAF1 and β-actin were assessed by immunoblotting, quantified by densitometry and TRAF1 results reported relative to control cells, after normalization for β-actin (mean±SD). […] Then nuclear extracts were prepared and p65-DNA-binding activity was measured (mean±SD; n=3).
(§2) Lymphocyte proliferation assay. Splenocytes were isolated from normal Balb/c mice and red blood cells were removed using a mouse erythrocyte lysis kit (R&D Systems, Minneapolis, Minn.). Splenocytes were suspended in RMPI-1640 medium supplemented with 10% FBS, 1% penicillin-streptomycin, and 1 mM L-glutamine. Cells were diluted into 2×10^6 cells/mL and 200 μL were seeded in round bottom 96-well plates and incubated at 37° C. in 5% CO2 and 95% relative humidity. Cells were pretreated with compounds or DMSO diluted in medium for 2 h, then treated with anti-CD3/anti-CD28 or anti-IgM antibodies for 48 h, prior to adding 1 μCi [^3H]-Thymidine for (MP Biomedical, Solon, Ohio) 12 h. Cells were transferred to fiberglass filters (Wallac, Turku, Finland) using a FilterMate Harvester (Perkin Elmer), dried, and [^3H]-incorporation into DNA was quantified by scintillation counting Betaplate Scint (Perkin Elmer) and a MicroBetaTrilux LCS and luminescence counter (Perkin Elmer).

[2] = test system: CD40-induced NF-κB reporter gene activity; test: NF-κB reporter in HEK293-NF-κB-luc cells over-expressing CD40; assay type: cell-based; settings: CID-2858522 4 μM, IKK inhibitor 10 μM, PKC inhibitor 1 μM
Description: FIGS. 3 (A-F) HEK293-NF-κB-luc cells were pretreated with CID-2858522 (4 μM), IKK inhibitor, BMS-335541 (10 μM), or PKC inhibitor, Bisindolylmaleimide I (1 μM) for 2 hrs and then transfected with plasmids encoding CD4/TLR4 (A), CD40 (B), NOD1 (C), NOD2 (D), cIAP2-MALT1 (E), or XIAP and TAB (F), or pcDNA as control (compounds were not removed). After 48 hrs, luciferase activity was measured expressing data as fold increase relative to unstimulated cells (mean±SD; n=3). (G-H) HEK293-NF-κB-luc cells were pretreated with CID-2858522 (4 μM), or IKK inhibitor, BMS-335541 (10 μM) for 2 hrs and then cultured with 2 μM doxorubicin (G) or 16 μM retinoic acid (H). After 48 hrs, luciferase activity was measured as above.
Counter Screening and Secondary Assays. To counter-screen for inhibitors of the TNF pathway, HEK293-NFκB-Luc cells were seeded at 10^5 cells per well in 90 μL medium in white 96-well plates (Greiner Bio-One) and cultured overnight, before adding compounds (5 μL in medium) to cells. After 2 h incubation, 5 μL TNF (200 ng/mL) (R&D Systems) was added (final concentration 10 ng/mL) and cells were incubated for 16 h. Luciferase activity was measured using Britelite kit (Perkin Elmer). To counter-screen for inhibitors of NF-κB induced by TLR4, CD40, NOD1, NOD2, cIAP2/MALT, or XIAP/TAB, the 293-NF-κB-luc cells cultured in 96 well plates as above were pretreated with compounds for 2 h and then transfected using Lipofectamine 2000 with various plasmids including pcDNA3 (“empty vector” control) or plasmids encoding CD4-TLR4, CD40, NOD1, NOD2, cIAP2/MALT, XIAP/TAB, using 0.2 μL of transfection reagent containing 100 ng DNA per well. Cells were cultured in medium containing CID-2858522 or other compounds and luciferase activity was measured 48 h later. […] Reactions were then initiated by addition of 50 μL 160 nM ATP (Sigma) in PBS and luciferase activity was measured 2 h later using a luminometer (LJL Biosystems, Sunnyvale, Calif.).

[3] = test system: anti-IgM-induced lymphocyte proliferation; test: Lymphocyte proliferation assay (3H-Thymidine), anti-IgM-stimulated splenocytes; assay type: cell-based, mouse; settings: for pIC50: mouse splenocytes, 3H-Thymidine incorporation, read-out: IC50, lymphocyte proliferation, B-cells (anti-IgM)
Description: as §1, §2

[4] = test system: Jurkat cells; test: Jurkat cell viability (ATPlite); assay type: cell-based; settings: 24 h
Description: FIG. 4A: Jurkat T cells were treated by anti-cd3/anti-cd28/anti-mouse IgG (6 μg/mL) or PMA/Ion (10 ng/mL) for 24 h, IL-2 production in medium was measured by ELISA kit. FIG. 4B-E: Jurkat T cells were pretreated by IKK inhibitor (B), PKC inhibitor (C), CID-2858522 (D) for 2 h and then treated by anti-cd3/anti-cd28/anti-mouse IgG (6 μg/mL) or PMA/Ion (10 ng/mL) for 24 h, IL-2 production in medium was measured by ELISA kit; E, Jurkat cells were treated by CID-2858522, PKC inhibitor and IKK inhibitor for 24 h, cell viability was measured by ATPlite kit.
Cell viability assay. Cell viability was estimated based on cellular ATP levels, measured using ATPlite kit (Perkin Elmer). Cells at a density of 10^5/mL were seeded at 90 μL per well in 96-well white plates and cultured overnight. Compounds were added (5 μL in medium) to wells and cells were cultured for […], Finally, 50 μL ATPlite solution was added to each well and luminescence activity was read using a luminometer (LJL Biosystems, Sunnyvale, Calif.).

SMILES	pIC50 ([1]; Lymphocyte)	suppression of CD40-induced NF-κB reporter [2]	pIC50 ([3]; Lymphocyte)	suppression of lymphocyte proliferation ([3]; concentrations of 5 μM, stimulus not specified)	cytotoxicity to Jurkat cells [4]	pIC50 [1]	pIC50 [3]	effect on anti-CD3/CD28-induced lymphocyte proliferation [1]
Cc1ccc2nc(NCCN)c3ncc(C)n3c2c1 [BMS-345541, reference compound]	~5.40	potently suppressed	~5.70	essentially completely suppressed	not due to cytotoxicity			
CN(C)CCCn1cc(C2=C(c3c[nH]c4ccccc34)C(=O)NC2=O)c2ccccc21 [Bisindolylmaleimide I, reference compound]		not by CID-2858522 or by the PKC inhibitor			not due to cytotoxicity	4.94	6.70	
Cc1cc2nc(NCCCO)n(CC(=O)c3cc(C(C)(C)C)c(O)c(C(C)(C)C)c3)c2cc1C [Compound 1, 2-(2-(3-Hydroxypropylamino)-5,6-dimethyl-1H-benzo[d]imidazol-1-yl)-1-(3,5-di-tert-butyl-4-hydroxyphenyl)ethanone]		did not inhibit; also recorded: not by CID-2858522	5.70		not due to cytotoxicity			minimal effect
